Assay results published in publication PMC10817917, “Alkyl deoxyglycoside-polymyxin combinations against critical priority carbapenem-resistant gram-negative bacteria” (Scientific Reports, 2024).
Where two headings read alike, the source gives them in different places.

How the values were obtained:
P. aeruginosa CQ4924 = assay: Broth microdilution MIC, glycosides with or without polymyxins; format: cell-based, Pseudomonas aeruginosa; details: for MIC: Pseudomonas aeruginosa, CQ4924
K. pneumoniae CQ1947 = assay: as above; format: cell-based, Klebsiella pneumoniae; details: for MIC: Klebsiella pneumoniae, CQ1947
K. pneumoniae CQ4921 = assay: Broth microdilution MIC/MBC, glycosides with or without polymyxins; format: cell-based, Klebsiella pneumoniae; details: for MIC: Klebsiella pneumoniae, CQ4921
HEK-293T cells = assay: Resazurin cell viability assay (cytotoxicity); format: cell-based, human; details: Homo sapiens, HEK-293T, 72 h, read-out: IC50
How it was run: (§1)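 HEK-293T and Caco-2 cells (1.5 × 10^4/well, RPMI 1640 with 10% FBS) exposed 72 h at 37 °C to glycosides at final 100 to 10 µM, alone or with PMB or colistin at final 0.5, 0.25 or 0.125 µg/mL; max DMSO 0.33%. Resazurin added 4 h, read 570/600 nm; IC50 from dose-response fits, mean ± SD of three replicates.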

Caco-2 cells = assay: Resazurin cell viability assay (cytotoxicity); format: cell-based, human; details: Homo sapiens, Caco-2, 72 h, read-out: IC50
How it was run: as §1

E. cloacae CQ1941 = assay: Broth microdilution MIC/MBC, glycosides with or without polymyxins; format: cell-based; details: for MIC: Enterobacter cloacae, CQ1941
[1] = alone, read-out: MICA (MIC of each compound individually)
[2] = combination with the lowest FICI
[3] = compound + colistin, lowest FICI
[4] = tested alone (no polymyxin adjuvant)

CCCCCCCCCCCCO[C@@H]1C[C@@H](O)[C@H](O)[C@@H](CO)O1 [Compound 4, dodecyl 2-deoxy-α-D-arabino-hexopyranoside]
MIC of colistin in combination with the compound (P. aeruginosa CQ4924; Cpd conc. 0.4 μg/mL, strain H): > 0.5 mg/L | MIC of colistin in combination with the compound (P. aeruginosa CQ4924; Cpd conc. 0.8 μg/mL, strain H): > 0.5 mg/L | MIC of colistin in combination with the compound (P. aeruginosa CQ4924; Cpd conc. 3.125 μg/mL, strain H): > 0.5 mg/L | MIC of colistin in combination with the compound (P. aeruginosa CQ4924; Cpd conc. 6.25 μg/mL, strain H): > 0.5 mg/L | MIC of colistin in combination with the compound (P. aeruginosa CQ4924; Cpd conc. 12.5 μg/mL, strain H): > 0.5 mg/L | MIC of colistin in combination with the compound (P. aeruginosa CQ4924; Cpd conc. […], strain H): > 0.5 mg/L | MIC of compound in combination with PMB (P. aeruginosa CQ4924; PMB 0.25 μg/mL, strain H): > 100 mg/L | MIC of compound in combination with PMB (P. aeruginosa CQ4924; PMB 0.5 μg/mL, strain H): > 100 mg/L | MIC (P. aeruginosa CQ4924; agent alone, no adjuvant (polymyxin conc. 0), strain H, read-out: MIC): > 100 mg/L | MIC (P. aeruginosa CQ4924; [1]): > 100 mg/L | MIC of compound in combination with colistin (P. aeruginosa CQ4924; colistin 0.25 μg/mL, strain H): > 100 mg/L | MIC of colistin in combination with the compound (K. pneumoniae CQ1947; Cpd conc. 0.4 μg/mL, strain F): 0.5 mg/L | MIC of colistin in combination with the compound (K. pneumoniae CQ1947; Cpd conc. 0.8 μg/mL, strain F): 0.5 mg/L | MIC of colistin in combination with the compound (K. pneumoniae CQ1947; Cpd conc. 3.125 μg/mL, strain F): 0.5 mg/L | MIC of colistin in combination with the compound (K. pneumoniae CQ1947; Cpd conc. 6.25 μg/mL, strain F): 0.5 mg/L | MIC of colistin in combination with the compound (K. pneumoniae CQ1947; Cpd conc. 12.5 μg/mL, strain F): 0.5 mg/L | MIC of colistin in combination with the compound (K. pneumoniae CQ1947; Cpd conc. […], strain F): 0.5 mg/L | MIC (K. pneumoniae CQ1947; agent alone, no adjuvant (polymyxin conc. 0), strain F, read-out: MIC): > 100 mg/L | MIC (K. pneumoniae CQ1947; [1]): > 100 mg/L | MIC of compound in combination with PMB (K. pneumoniae CQ1947; PMB 0.25 μg/mL, strain F): > 100 mg/L | MIC of compound in combination with PMB (K. pneumoniae CQ1947; PMB 0.5 μg/mL, strain F): > 100 mg/L | MIC of compound in combination with colistin (K. pneumoniae CQ1947; colistin 0.25 μg/mL, strain F): > 100 mg/L | MIC of compound in combination with colistin (K. pneumoniae CQ1947; colistin 0.5 μg/mL, strain F): ≤ 0.1 mg/L | MICA(A + B) (MIC of compound in combination with colistin) (K. pneumoniae CQ1947; [2]): 0.4 mg/L | MICB(A + B) (MIC of colistin in combination with compound) (K. pneumoniae CQ1947; [2]): 0.5 mg/L | Interpretation (of FICI) (K. pneumoniae CQ1947; compound + colistin): Indifferent (1.0 to 4.0 were indifferent) | FICI (K. pneumoniae CQ1947; [3]): 1.002 | MIC of colistin in combination with the compound (K. pneumoniae CQ4921; Cpd conc. 0.4 μg/mL, strain C): 0.5 mg/L | MIC of colistin in combination with the compound (K. pneumoniae CQ4921; Cpd conc. 0.8 μg/mL, strain C): 0.5 mg/L | MIC of colistin in combination with the compound (K. pneumoniae CQ4921; Cpd conc. 3.125 μg/mL, strain C): 0.5 mg/L | MIC of colistin in combination with the compound (K. pneumoniae CQ4921; Cpd conc. 6.25 μg/mL, strain C): 0.5 mg/L | MIC of colistin in combination with the compound (K. pneumoniae CQ4921; Cpd conc. 12.5 μg/mL, strain C): 0.5 mg/L | MIC of colistin in combination with the compound (K. pneumoniae CQ4921; Cpd conc. […], strain C): 0.5 mg/L | MIC (K. pneumoniae CQ4921; agent alone, no adjuvant (polymyxin conc. 0), strain C, read-out: MIC): > 100 mg/L | MIC (K. pneumoniae CQ4921; [1]): > 100 mg/L | MIC of compound in combination with PMB (K. pneumoniae CQ4921; PMB 0.25 μg/mL, strain C): > 100 mg/L | MIC of compound in combination with PMB (K. pneumoniae CQ4921; PMB 0.5 μg/mL, strain C): 1.6 mg/L | MIC of compound in combination with colistin (K. pneumoniae CQ4921; colistin 0.25 μg/mL, strain C): > 100 mg/L | MIC of compound in combination with colistin (K. pneumoniae CQ4921; colistin 0.5 μg/mL, strain C): ≤ 0.1 mg/L | MICA(A + B) (MIC of compound in combination with colistin) (K. pneumoniae CQ4921; [2]): 0.4 mg/L | MICB(A + B) (MIC of colistin in combination with compound) (K. pneumoniae CQ4921; [2]): 0.5 mg/L | Interpretation (of FICI) (K. pneumoniae CQ4921; compound + colistin): Indifferent (1.0 to 4.0 were indifferent) | FICI (K. pneumoniae CQ4921; [3]): 1.002 | IC50 (HEK-293T cells; Colistin 0.5 μg/mL): > 100 µM | IC50 (HEK-293T cells; No polymyxin): > 100 µM | IC50 (HEK-293T cells; PMB 0.5 μg/mL): > 100 µM | IC50 (HEK-293T cells; [4]): > 33 mg/L | IC50 (Caco-2 cells; Colistin 0.5 μg/mL): > 100 µM | IC50 (Caco-2 cells; No polymyxin): > 100 µM | IC50 (Caco-2 cells; [4]): > 33 mg/L | MIC of colistin in combination with the compound (E. cloacae CQ1941; Cpd conc. 0.4 μg/mL, strain D): 0.5 mg/L | MIC of colistin in combination with the compound (E. cloacae CQ1941; Cpd conc. 0.8 μg/mL, strain D): 0.5 mg/L | MIC of colistin in combination with the compound (E. cloacae CQ1941; Cpd conc. 3.125 μg/mL, strain D): 0.5 mg/L | MIC of colistin in combination with the compound (E. cloacae CQ1941; Cpd conc. 6.25 μg/mL, strain D): 0.5 mg/L | MIC of colistin in combination with the compound (E. cloacae CQ1941; Cpd conc. 12.5 μg/mL, strain D): 0.5 mg/L | MIC of colistin in combination with the compound (E. cloacae CQ1941; Cpd conc. […], strain D): 0.5 mg/L | MIC (E. cloacae CQ1941; agent alone, no adjuvant (polymyxin conc. 0), strain D, read-out: MIC): > 100 mg/L | MIC (E. cloacae CQ1941; [1]): > 100 mg/L | MIC of compound in combination with PMB (E. cloacae CQ1941; PMB 0.25 μg/mL, strain D): > 100 mg/L | MIC of compound in combination with PMB (E. cloacae CQ1941; PMB 0.5 μg/mL, strain D): ≤ 0.1 mg/L | MIC of compound in combination with colistin (E. cloacae CQ1941; colistin 0.25 μg/mL, strain D): > 100 mg/L | MIC of compound in combination with colistin (E. cloacae CQ1941; colistin 0.5 μg/mL, strain D): ≤ 0.1 mg/L | MICA(A + B) (MIC of compound in combination with colistin) (E. cloacae CQ1941; [2]): 0.4 mg/L | MICB(A + B) (MIC of colistin in combination with compound) (E. cloacae CQ1941; [2]): 0.5 mg/L | Interpretation (of FICI) (E. cloacae CQ1941; compound + colistin): Indifferent (1.0 to 4.0 were indifferent) | FICI (E. cloacae CQ1941; [3]): 1.002
